Test results from ChEMBL document CHEMBL1201862, “PubChem BioAssay data set” (2004).
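Step 1: Grow cells in 96-well plates. Step 2: Expose to compound for 48 hours at 5 concentrations. Step 3: Interpolate endpoints linearly; if unreached, use highest concentration. Here, GI50 denotes the concentration required for 50% inhibition of growth.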 Activity calls are given as the source filed them. Rule as the data show it: active = GI50 up to about 1.1 µM and inactive = higher.

Assays:
Test in all cases: NCI tumour cell line growth inhibition, 48 h
KM12 = tested on: KM12
COLO 205 = tested on: COLO 205
CAKI-1 = tested on: CAKI-1
NCI-H226 = tested on: NCI-H226
K562 = tested on: K562
M19-MEL = tested on: M19-MEL
Malme-3M = tested on: Malme-3M
RXF 631 = tested on: RXF 631
OVCAR-5 = tested on: OVCAR-5
HT-29 = tested on: HT-29
M14 = tested on: M14
RPMI-8226 = tested on: RPMI-8226
IGROV-1 = tested on: IGROV-1
HCT-15 = tested on: HCT-15
OVCAR-3 = tested on: OVCAR-3
SNB-75 = tested on: SNB-75
HCC 2998 = tested on: HCC 2998
UACC-257 = tested on: UACC-257
UO-31 = tested on: UO-31
HOP-92 = tested on: HOP-92
SF-268 = tested on: SF-268
NCI-H460 = tested on: NCI-H460
DLD-1 = tested on: DLD-1
XF498 = tested on: XF498
OVCAR-4 = tested on: OVCAR-4
OVCAR-8 = tested on: OVCAR-8
HCT-116 = tested on: HCT-116
NCI-H23 = tested on: NCI-H23
LOX IMVI = tested on: LOX IMVI
DMS-114 = tested on: DMS-114
LXFL 529 = tested on: LXFL 529
MOLT-4 = tested on: MOLT-4
SN12C = tested on: SN12C
SW-620 = tested on: SW-620
DMS-273 = tested on: DMS-273
A549 = tested on: A549
786-0 = tested on: 786-0
EKVX = tested on: EKVX
SNB-19 = tested on: SNB-19
A498 = tested on: A498
SF-539 = tested on: SF-539
U-251 = tested on: U-251
CCRF-CEM = tested on: CCRF-CEM
SK-MEL-28 = tested on: SK-MEL-28
RXF 393 = tested on: RXF 393
TK-10 = tested on: TK-10
HL-60 = tested on: HL-60
ACHN = tested on: ACHN
SF-295 = tested on: SF-295
KM-20L2 = tested on: KM-20L2
SR = tested on: SR
SNB-78 = tested on: SNB-78
SK-OV-3 = tested on: SK-OV-3
SK-MEL-5 = tested on: SK-MEL-5
HOP-18 = tested on: HOP-18
UACC-62 = tested on: UACC-62
HOP-62 = tested on: HOP-62

Q: For COc1cc2[nH]c3c(c2cc1OC)CCN[C@]31CC[C@]2(CC3c4c(cc(OC)c(O)c42)CCN3C)C[C@H]1OC (some centres not stated), which GI50 (KM12) is on record?
A: 17.7 µM (inactive)

Q: What about the GI50 (COLO 205) of the same compound?
A: 13.7 µM (inactive)

Q: What about the GI50 (CAKI-1) of the same compound?
A: 34.4 µM (inactive)

Q: What about the GI50 (NCI-H226) of the same compound?
A: 45.5 µM (inactive)

Q: And the GI50 (K562)?
A: 11.6 µM (inactive)

Q: And the GI50 (M19-MEL)?
A: 17.9 µM (inactive)

Q: What about the GI50 (Malme-3M) of the same compound?
A: 21 µM (inactive)

Q: And the GI50 (RXF 631)?
A: 11.7 µM (inactive)

Q: What about the GI50 (OVCAR-5) of the same compound?
A: 69.3 µM (inactive)

Q: And the GI50 (HT-29)?
A: 22.3 µM (inactive)

Q: And the GI50 (M14)?
A: 15.7 µM (inactive)

Q: What about the GI50 (RPMI-8226) of the same compound?
A: 15.2 µM (inactive)

Q: And the GI50 (IGROV-1)?
A: 22.5 µM (inactive)

Q: And the GI50 (HCT-15)?
A: 18.8 µM

Q: What about the GI50 (OVCAR-3) of the same compound?
A: 21.2 µM (inactive)

Q: What about the GI50 (SNB-75) of the same compound?
A: 21.5 µM (inactive)

Q: And the GI50 (HCC 2998)?
A: 15.2 µM (inactive)

Q: And the GI50 (UACC-257)?
A: 19.9 µM (inactive)

Q: What about the GI50 (UO-31) of the same compound?
A: > 10 µM (inactive)

Q: What about the GI50 (HOP-92) of the same compound?
A: 25.8 µM (inactive)

Q: And the GI50 (SF-268)?
A: 25.5 µM (inactive)

Q: What about the GI50 (NCI-H460) of the same compound?
A: 23.8 µM (inactive)

Q: And the GI50 (DLD-1)?
A: 24.4 µM (inactive)

Q: And the GI50 (XF498)?
A: 15.6 µM (inactive)

Q: And the GI50 (OVCAR-4)?
A: 23.8 µM (inactive)

Q: What about the GI50 (OVCAR-8) of the same compound?
A: 19.6 µM (inactive)

Q: What about the GI50 (HCT-116) of the same compound?
A: 15.6 µM (inactive)

Q: And the GI50 (NCI-H23)?
A: 65.5 µM (inactive)

Q: And the GI50 (LOX IMVI)?
A: 24.3 µM (inactive)

Q: What about the GI50 (DMS-114) of the same compound?
A: 17.3 µM (inactive)

Q: What about the GI50 (LXFL 529) of the same compound?
A: 24.5 µM (inactive)

Q: And the GI50 (MOLT-4)?
A: 12.9 µM (inactive)

Q: What about the GI50 (SN12C) of the same compound?
A: 21 µM (inactive)

Q: And the GI50 (SW-620)?
A: 22.3 µM (inactive)

Q: What about the GI50 (DMS-273) of the same compound?
A: 2 µM (inactive)

Q: What about the GI50 (A549) of the same compound?
A: 25.1 µM (inactive)

Q: And the GI50 (786-0)?
A: 15.7 µM (inactive)

Q: And the GI50 (EKVX)?
A: 55.7 µM (inactive)

Q: And the GI50 (SNB-19)?
A: 34.8 µM (inactive)

Q: And the GI50 (A498)?
A: 24.8 µM (inactive)

Q: And the GI50 (SF-539)?
A: 17.1 µM (inactive)

Q: And the GI50 (U-251)?
A: 18 µM (inactive)

Q: What about the GI50 (CCRF-CEM) of the same compound?
A: 10.8 µM (inactive)

Q: What about the GI50 (SK-MEL-28) of the same compound?
A: 20.2 µM (inactive)

Q: What about the GI50 (RXF 393) of the same compound?
A: 3.04 µM (inactive)

Q: What about the GI50 (TK-10) of the same compound?
A: 21.6 µM (inactive)

Q: And the GI50 (HL-60)?
A: 11.6 µM (inactive)

Q: What about the GI50 (ACHN) of the same compound?
A: 24.8 µM (inactive)

Q: And the GI50 (SF-295)?
A: 20.5 µM (inactive)

Q: And the GI50 (KM-20L2)?
A: 28.1 µM (inactive)

Q: What about the GI50 (SR) of the same compound?
A: 15.8 µM (inactive)

Q: And the GI50 (SNB-78)?
A: 29.1 µM (inactive)

Q: What about the GI50 (SK-OV-3) of the same compound?
A: 25.8 µM (inactive)

Q: What about the GI50 (SK-MEL-5) of the same compound?
A: 15 µM (inactive)

Q: And the GI50 (HOP-18)?
A: 18 µM (inactive)

Q: What about the GI50 (UACC-62) of the same compound?
A: 25 µM (inactive)

Q: And the GI50 (HOP-62)?
A: 21.8 µM (inactive)
